Measured values from US10098853B2, “Composition for treating atherosclerosis and a preparation method thereof” (KAOHSIUNG MEDICAL UNIVERSITY, priority 2011, dated 2018).
Entries after “also recorded” stand apart in the source; their conditions may differ.

Legend:
cyclin D3 = experiment: Cyclin D3 protein expression in Ox-LDL treated HASMCs (immunoblotting); assay type: cell-based, human; conditions: FIG. 9, PD98059 10^−5 M, compound 1 5 μg/ml, rosiglitazone 5 μg/ml, Ox-LDL 30 μg/ml, 8 hours
Source text: (§1) Three independent experiments are made in each group.

Ki-67 protein = Ki-67 protein immunofluorescence in Ox-LDL stimulated HASMCs; assay type: cell-based, human; conditions: Ox-LDL 30 μg/ml, 24 hours; for positive stains of Ki-67: compound 1 5 μg/ml or PD98059 10^−5 M
Procedure: For analyzing the mechanisms of compound 1 on inhibiting HASMCs proliferation, the cellular marker for proliferation, Ki-67 protein (also known as MKI67), detected with green fluorescence was the index for HASMCs proliferation. The experiment method was to stimulate HASMCs with Ox-LDL (30 μg/ml) for 24 hours, and simultaneously compound 1 (5 μg/ml) or PD98059 (an ERK 1/2 inhibitor, 10^−5 M) was added. A mouse anti-Ki-67 monoclonal antibody was combined with a DyLight™488-conjugated second antibody to confirm the HASMCs proliferation. DAPI (4′,6-diamidino-2-phenylindole), a fluorescent stain that binds strongly to DNA, was used to localize cell nuclei. Cells were observed under flourescence microscopy. The proliferative cells were quantified by counting the ratio of DyLight™488 (green) fluorescence and DAPI (blue) fluorescence.

cyclin D1 = experiment: Cyclin D1 protein expression in Ox-LDL treated HASMCs (immunoblotting); assay type: cell-based, human; conditions: FIG. 9, PD98059 10^−5 M, compound 1 5 μg/ml, rosiglitazone 5 μg/ml, Ox-LDL 30 μg/ml, 8 hours
Source text: as §1

[1] = tested on: human aortic smooth muscle cells (HASMCs); experiment: HASMCs proliferation induced by LPS (WST-1); assay type: cell-based
Procedure: First, HASMCs were seeded into 96-well plates.
Chalcone compounds 1 to 29 at different concentrations prepared in Experiment 1 were used to determine the effect of HASMCs proliferation induced by LPS. […] In reference to the drug concentration for cytotoxicity that HASMCs tolerate, the chalcone compounds having the relevant substituents to compound 1 were selected (rather than all chalcone compounds) to compare with each other at the same concentration.

PPARα = PPARα mRNA expression in HASMCs (real-time PCR); assay type: cell-based, human; conditions: FIG. 6(b); with Ox-LDL 30 μg/ml, compound 1 5 μg/ml, 2, 4, 8 and 24 hours
[2] = tested on: human aortic smooth muscle cells (HASMCs); experiment: HASMCs proliferation and cell viability induced by Ox-LDL (WST-1); conditions: FIG. 2; 1, 2.5 and 5 μg/ml, Ox-LDL 30 μg/ml, 24 hours
Procedure: For analyzing whether each genus of flavonoid compounds could inhibit the activity of HASMCs proliferation, the proliferation and cell viability of HASMCs were determined using WST-1 reagent (Roche Applied Science, Penzberg, Germany). WST-1 is a tetrazolium salt that will be cleaved to formazan by mitochondrial dehydrogenases in viable cells. First, HASMCs were seeded into 96-well plates. […] At the end of incubation, WST-1 was added into cell medium and the amount of formazan was measured at a wavelength of 450 nm by an ELISA reader.

PPARγ [3] = experiment: PPARγ mRNA expression in HASMCs (real-time PCR); assay type: cell-based, human
Procedure: The anti-inflammatory effect of compound 1 was determined by the mRNA expressions of IL-1β and IL-6. HASMCs were stimulated with Ox-LDL (30 μg/ml) for 8 hours, and simultaneously treated with (i) PD98059 (5 μg/ml), (ii) rosiglitazone (5 μg/ml), (iii) compound 1 (5 μg/ml) and (iv) rosiglitazone (5 μg/ml) plus compound 1 (5 μg/ml). […] SEQ ID Nos: 1 and 2 were paired in amplification of IL-1β gene, SEQ ID Nos: 3 and 4 were paired in amplification of IL-6 gene, SEQ ID Nos: 5 and 6 were paired in amplification of PPARα gene, SEQ ID Nos: 7 and 8 were paired in amplification of PPARγ gene, and SEQ ID Nos: 9 and 10 were paired in amplification of β-actin gene.
This experiment was performed to investigate the regulatory mechanism of compound 1 on PPARγ based on PPARγ mRNA expression in HASMCs. […]

PPARγ [4] = experiment: PPARγ protein expression in HASMCs (immunoblotting); assay type: cell-based, human; conditions: FIG. 7(b); compound 1 alone, 0, 1, 2.5 and 5 μg/ml, 4 and 8 hours
Procedure: FIG. 7(a) and FIG. 7(b) respectively are (a) the diagram showing PPARγ mRNA expression and (b) an immunoblotting spectrum showing the PPARγ protein expression of compound 1 (0, 1, 2.5 and 5 μg/ml) on HASMCs for 4 and 8 hours. Data are represented as mean±S.D. in three independent experiments. a: p<0.001, b: p<0.01.
To further confirm whether compound 1 is an inducer of PPARγ for HASMCs, cells were stimulated with compound 1 alone.

Compound: COc1cccc(-c2cc(=O)c3ccccc3o2)c1N [PD98059, 2-(2-amino-3-methoxyphenyl)-chromen-4-one]
- cyclin D3 protein expression induced by Ox-LDL (cyclin D3): did not significantly decrease cyclin D1 and D3 protein expression; also recorded: but not PD98059 and rosiglitazone, significantly decreased the cyclin D1 and D3 upregulation
- positive stains of Ki-67 (Ki-67 protein): decreased the positive stains of Ki-67
- cyclin D1 protein expression induced by Ox-LDL (cyclin D1): did not significantly decrease cyclin D1 and D3 protein expression; also recorded: but not PD98059 and rosiglitazone, significantly decreased the cyclin D1 and D3 upregulation

Compound: COc1cccc(/C=C/C(=O)c2cc(Br)ccc2O)c1 [compound 21]
- cytotoxicity to HASMCs ([1]; FIG. 11(a), 5 μg/ml): would lead to death of a part of cells
- inhibition activity on HASMCs proliferation induced by LPS ([1]; FIG. 11(a), 5 μg/ml): had inhibition activity

Compound: COc1cccc(/C=C/C(=O)c2ccccc2O)c1 [compound 4]
- inhibition activity on HASMCs proliferation induced by LPS ([1]; FIG. 11(a), 5 μg/ml): both had the similar inhibition activity

Compound: COc1cccc(/C=C/C(=O)c2ccc(Cl)cc2)c1 [compound 15]
- cytotoxicity to HASMCs ([1]; FIG. 11(c), 2 μg/ml): would lead to death of a part cells

Compound: O=C(/C=C/c1ccccc1)c1ccccc1 [compound 9]
- inhibition activity on HASMCs proliferation induced by LPS ([1]; FIG. 11(c), 2 μg/ml): showed no inhibition activity

Compound: COc1ccc(/C=C/C(=O)c2ccccc2)cc1 [compound 7]
- inhibition activity on HASMCs proliferation induced by LPS ([1]; FIG. 11(a), 5 μg/ml): compound 1 rather than compound 7 has inhibition activity

Compound: COc1ccc(/C=C/C(=O)c2ccccc2Cl)cc1 [compound 28]
- inhibition activity on HASMCs proliferation induced by LPS ([1]; FIG. 11(b), 2.5 μg/ml): slightly better than that of compounds 26 and 28

Compound: O=C(/C=C/c1ccccc1)c1ccc(O)cc1O [compound 2]
- cytotoxicity to HASMCs ([1]; FIG. 11(c), 2 μg/ml): would lead to death of a part cells

Compound: COc1ccc(/C=C/C(=O)c2ccc(O)cc2O)cc1 [compound 5]
- inhibition activity on HASMCs proliferation induced by LPS ([1]; FIG. 11(b), 2.5 μg/ml): compound 1 rather than compound 5 had inhibition activity

Compound: COc1cccc(/C=C/C(=O)c2ccccc2)c1 [compound 8]
- inhibition activity on HASMCs proliferation induced by LPS ([1]; FIG. 11(c), 2 μg/ml): did not have inhibition activity

Compound: COc1ccc(/C=C/C(=O)c2ccccc2F)cc1 [compound 27]
- inhibition activity on HASMCs proliferation induced by LPS ([1]; FIG. 11(b), 2.5 μg/ml): inhibition activity of compound 1 was better than those of compounds 12 and 27

Compound: O=C(/C=C/c1ccccc1)c1ccccc1O [compound 10]
- inhibition activity on HASMCs proliferation induced by LPS ([1]; FIG. 11(b), 2.5 μg/ml): did not have inhibition activity

Compound: COc1ccc(/C=C/C(=O)c2cc(Br)ccc2O)cc1 [compound 20]
- cytotoxicity to HASMCs ([1]; FIG. 11(a), 5 μg/ml): would lead to death of a part of cells
- inhibition activity on HASMCs proliferation induced by LPS ([1]; FIG. 11(a), 5 μg/ml): had inhibition activity

Compound: COc1ccc(/C=C/C(=O)c2ccccc2O)cc1 [compound 1]
- PPARα mRNA expression (PPARα): neither Ox-LDL nor compound 1 stimulated PPARα mRNA upregulation
- cyclin D3 protein expression induced by Ox-LDL (cyclin D3): significantly inhibited cyclin D1 and D3 protein upregulation induced by Ox-LDL
- cyclin D3 protein expression induced by Ox-LDL (cyclin D3; listed as Compound 1): significantly decreased the cyclin D1 and D3 upregulation
- cell proliferation compared to Ox-LDL treatment group [2]: significantly decreased in a dose dependent manner
- reduction of proliferative (Ki-67 positive) cells compared to Ox-LDL stimulated HASMCs (Ki-67 protein; FIG. 3, 5 μg/ml): about 10%
- positive stains of Ki-67 (Ki-67 protein): decreased the positive stains of Ki-67
- cyclin D1 protein expression induced by Ox-LDL (cyclin D1): significantly inhibited cyclin D1 and D3 protein upregulation induced by Ox-LDL
- cyclin D1 protein expression induced by Ox-LDL (cyclin D1; listed as Compound 1): significantly decreased the cyclin D1 and D3 upregulation
- inhibition activity on HASMCs proliferation induced by LPS ([1]; FIG. 11(a), 5 μg/ml): compound 1 rather than compound 7 has inhibition activity
- inhibition activity on HASMCs proliferation induced by LPS ([1]; FIG. 11(b), 2.5 μg/ml): compound 1 rather than compound 5 had inhibition activity
- cytotoxicity to HASMCs ([1]; FIG. 11(c), 2 μg/ml): non-toxic to cells
- inhibition activity on HASMCs proliferation induced by LPS ([1]; FIG. 11(c), 2 μg/ml): had the best inhibition activity
- time at which maximum PPARγ mRNA expression was reached (PPARγ [3]; FIG. 6(a), with Ox-LDL 30 μg/ml, compound 1 5 μg/ml): 8 h
- PPARγ mRNA expression (PPARγ [3]; FIG. 6(a), with Ox-LDL 30 μg/ml, compound 1 5 μg/ml, 2, 4, 8 and 24 hours): significantly increased PPARγ mRNA expression post 4 hours administration
- PPARγ mRNA expression (PPARγ [3]; FIG. 7(a), compound 1 alone, 0, 1, 2.5 and 5 μg/ml, 4 and 8 hours): significantly increased PPARγ mRNA and protein expression in dose and time dependent manners
- PPARγ protein expression (PPARγ [4]): significantly increased PPARγ mRNA and protein expression in dose and time dependent manners

Compound: O=C(/C=C/c1ccc(OCc2ccccc2)cc1)c1cc(Br)ccc1O [compound 23]
- cytotoxicity to HASMCs ([1]; FIG. 11(a), 5 μg/ml): would lead to death of a part of cells
- inhibition activity on HASMCs proliferation induced by LPS ([1]; FIG. 11(a), 5 μg/ml): had inhibition activity

Compound: O=C(/C=C/c1ccc(OCc2ccccc2)cc1)c1ccc(O)cc1O [compound 3]
- inhibition activity on HASMCs proliferation induced by LPS ([1]; FIG. 11(c), 2 μg/ml): compound 3 rather than compound 6 had inhibition activity

Compound: O=C(/C=C/c1cccc(OCc2ccccc2)c1)c1cc(Br)ccc1O [compound 22]
- cytotoxicity to HASMCs ([1]; FIG. 11(c), 2 μg/ml): would lead to death of a part cells

Compound: O=C(/C=C/c1ccccc1)c1cc(Br)ccc1O [compound 19]
- cytotoxicity to HASMCs ([1]; FIG. 11(a), 5 μg/ml): would lead to death of a part of cells
- inhibition activity on HASMCs proliferation induced by LPS ([1]; FIG. 11(a), 5 μg/ml): had inhibition activity

Compound: COc1cccc(/C=C/C(=O)c2cccc(Br)c2)c1 [compound 14]
- inhibition activity on HASMCs proliferation induced by LPS ([1]; FIG. 11(b), 2.5 μg/ml): compound 12 rather than compound 14 had inhibition activity

Compound: COc1ccc(/C=C/C(=O)c2ccccc2Br)cc1 [compound 12]
- inhibition activity on HASMCs proliferation induced by LPS ([1]; FIG. 11(b), 2.5 μg/ml): compound 12 rather than compound 14 had inhibition activity

Compound: COc1cccc(/C=C/C(=O)c2ccc(O)cc2O)c1 [compound 6]
- inhibition activity on HASMCs proliferation induced by LPS ([1]; FIG. 11(c), 2 μg/ml): compound 3 rather than compound 6 had inhibition activity

Compound: COc1ccc(/C=C/C(=O)c2ccccc2I)cc1 [compound 26]
- inhibition activity on HASMCs proliferation induced by LPS ([1]; FIG. 11(b), 2.5 μg/ml): slightly better than that of compounds 26 and 28

Compound: CN(CCOc1ccc(CC2SC(=O)NC2=O)cc1)c1ccccn1 (racemic) [rosiglitazone, (RS)-5-[4-(2-[methyl(pyridin-2-yl)amino]ethoxy)benzyl]thiazolidine-2,4-dione]
- cyclin D3 protein expression induced by Ox-LDL (cyclin D3): did not significantly decrease cyclin D1 and D3 protein expression; also recorded: but not PD98059 and rosiglitazone, significantly decreased the cyclin D1 and D3 upregulation
- cyclin D1 protein expression induced by Ox-LDL (cyclin D1): did not significantly decrease cyclin D1 and D3 protein expression; also recorded: but not PD98059 and rosiglitazone, significantly decreased the cyclin D1 and D3 upregulation

Compound: O=C(/C=C/c1cccc(OCc2ccccc2)c1)c1ccccc1O [compound 11]
- cytotoxicity to HASMCs ([1]; FIG. 11(c), 2 μg/ml): would lead to death of a part cells

Compound: O=C(/C=C/c1ccc(OCc2ccccc2)cc1)c1ccccc1O [compound 25]
- cytotoxicity to HASMCs ([1]; FIG. 11(a), 5 μg/ml): would result in HASMC death

Compound: O=C(/C=C/c1ccc(O)cc1)c1ccccc1 [compound 29]
- inhibition activity on HASMCs proliferation induced by LPS ([1]; FIG. 11(c), 2 μg/ml): had no inhibition activity
